Test results published in US5306713A, “Highly active antioxidant of tocopheryl ascorbyl phosphate” (Shiseido Company Ltd., priority 1991, dated 1994).
Where a name gives a salt, the structure may show the parent alone.

What was measured:
[1] = solubility in water; type: physicochemical
[2] = cited from earlier work
[3] = smell evaluation of stored triethylene glycol samples by three experts (Experimental Example 2); design: key: +: no smell of rancidity; -: strong smell of rancidity; conditions: samples of Experimental Example 1 after 6 days storage
Description: The sample of the Example of the present invention and Comparison Examples 1, 2, and 3 in Experimental Example 1, obtained after 6 days storage, were evaluated with respect to the smell thereof.
The evaluation was made by three experts.

[4] = amount of formalin in triethylene glycol stored at 50° C., by colorimetry (Experimental Example 1); conditions: 50% aqueous triethylene glycol; for amount of formalin, After 3 Days / amount of formalin, After 6 Days / amount of formalin, Just After Preparation: 2 mg antioxidant in 10 g
Description: As the example of the present invention, 2 mg of the sodium salt of phosphoric acid diester obtained in Preparation Example 2 was dissolved in 10 g of a 50% aqueous solution of triethylene glycol (supplied by Nakarai Chemicals Co., Ltd.), the solution was stored in a thermostat tank maintained at 50° C. for 3 or 6 days, and the amount of formalin was measured by colorimetry.
Triethylene glycol free of any antioxidant as Comparison Example 1, triethylene glycol in which ascorbic acid was added in the same amount as in the Example of the present invention, as Comparison Example 2, and triethylene glycol in which mixed tocopherol was incorporated in the same amount as in the example of the present invention, as Comparison Example 3, were tested in the same manner as described above.

[5] = anti-oxidizing effect against oxidation of phospholipid/ethanol mixed micell by Fe^2+.ascorbic acid (Experimental Example 3); type: biochemical; conditions: 4.0 × 10^-5 M
Description: The anti-oxidizing effect of the sodium salt of phosphoric acid diester prepared in Preparation Example 2 against the oxidation of a phospholipid (egg lecitin)/ethanol mixed micell by Fe^2+.ascorbic acid was examined.
About 78 mg of egg lecitin was dissolved in 2 ml of ethanol, and 5 mM HEPES buffer solution (pH 7.2) was gradually added to the solution with ice cooling under the application of an ultrasonic wave (50 W) to form a suspension, until the total amount was 100 ml. Then, 200 μl of a 2.6×10^-4 M aqueous solution of the sodium salt of phosphoric acid diester was added to 1000 μl of the so-formed liquid. Then 50 μl of a 5.0×10^-5 M aqueous solution of sodium ascorbate and 50 μl of a 2.5×10^-6 M aqueous solution of ferrous sulfate were added to the mixture, and oxidation was carried out for 15 minutes in a water bath at 25° C. After the reaction, 50 μl of a 0.1% solution of hydroquinone in ethanol was immediately added to stop the reaction. […] After cooling, the absorbance at 450 to 600 nm was measured by a spectrophotometer. The increase of the absorption in the vicinity of about 530 to about 540 nm in the obtained curve was measured. The inhibition ratio was determined by comparing the obtained result with the result obtained at the blank test not using the test liquid.

| Molecule | solubility in water (in words) [1] | Judgement of Smell [3] | amount of formalin, After 3 Days ([4]; 50° C.) | amount of formalin, After 6 Days ([4]; 50° C.) | amount of formalin, Just After Preparation [4] | also measured |
| --- | --- | --- | --- | --- | --- | --- |
| Cc1c(C)c2c(c(C)c1OP(=O)(O)OC1=C(O)[C@@H]([C@@H](O)CO)OC1=O)CCC(C)(CCCC(C)CCCC(C)CCCC(C)C)O2 (stereo partly shown) [calcium salt] | insoluble in water |  |  |  |  |  |
| tocopherol |  |  |  |  |  | solubility of tocopherol in water (in words) [2]: not soluble in water |
| Cc1c(C)c2c(c(C)c1OP(=O)(O)OC1=C(O)[C@@H]([C@@H](O)CO)OC1=O)CCC(C)(CCCC(C)CCCC(C)CCCC(C)C)O2 (mixture of isomers) [sodium salt of phosphoric acid diester, sodium L-ascorbic DL-α-tocopherol phoschate] | soluble in water | + | 1.7 | 15.5 | 0.1 | anti-oxidizing effect compared with ascorbic acid or tocopherol alone (in words) ([4]; 50° C., 3 or 6 days): much higher anti-oxidizing effect; inhibition of the oxidation (in words) [5]: substantially completely inhibited the oxidation; Inhibition Ratio ([5]; oxidation 15 minutes at 25° C., pH 7.2 HEPES, TBA absorbance about 530 to about 540 nm, 40 µM): 99.1% |
| O=C1O[C@H]([C@@H](O)CO)C(O)=C1O [ascorbic acid, reference compound] |  | - | 39.6 | 111.7 | 0.1 |  |
| Cc1c(C)c2c(c(C)c1OP(=O)(O)OC1=C(O)[C@@H]([C@@H](O)CO)OC1=O)CCC(C)(CCCC(C)CCCC(C)CCCC(C)C)O2 (mixture of isomers) [potassium salt, potassium L-ascorbic DL-α-tocopherol phosphate] | soluble in water |  |  |  |  |  |
| Cc1c(C)c2c(c(C)c1OP(=O)(O)OC1=C(O)[C@@H]([C@@H](O)CO)OC1=O)CCC(C)(CCCC(C)CCCC(C)CCCC(C)C)O2 (mixture of isomers) [phosphoric acid diester, L-ascorbic DL-α-tocopherol phosphate] | freely dissolved in water |  |  |  |  |  |
